The text below walks through data of ChEMBL document CHEMBL2429788, “Chiral linkers to improve selectivity of double-headed neuronal nitric oxide synthase inhibitors” (Bioorg Med Chem Lett, 2013).

pKi: −log10 of the molar value.

Experiment [1] concerns the target T1, Nitric oxide synthase, inducible (Mus musculus, UniProt P29477).
T1 sequence (P29477 whole entry): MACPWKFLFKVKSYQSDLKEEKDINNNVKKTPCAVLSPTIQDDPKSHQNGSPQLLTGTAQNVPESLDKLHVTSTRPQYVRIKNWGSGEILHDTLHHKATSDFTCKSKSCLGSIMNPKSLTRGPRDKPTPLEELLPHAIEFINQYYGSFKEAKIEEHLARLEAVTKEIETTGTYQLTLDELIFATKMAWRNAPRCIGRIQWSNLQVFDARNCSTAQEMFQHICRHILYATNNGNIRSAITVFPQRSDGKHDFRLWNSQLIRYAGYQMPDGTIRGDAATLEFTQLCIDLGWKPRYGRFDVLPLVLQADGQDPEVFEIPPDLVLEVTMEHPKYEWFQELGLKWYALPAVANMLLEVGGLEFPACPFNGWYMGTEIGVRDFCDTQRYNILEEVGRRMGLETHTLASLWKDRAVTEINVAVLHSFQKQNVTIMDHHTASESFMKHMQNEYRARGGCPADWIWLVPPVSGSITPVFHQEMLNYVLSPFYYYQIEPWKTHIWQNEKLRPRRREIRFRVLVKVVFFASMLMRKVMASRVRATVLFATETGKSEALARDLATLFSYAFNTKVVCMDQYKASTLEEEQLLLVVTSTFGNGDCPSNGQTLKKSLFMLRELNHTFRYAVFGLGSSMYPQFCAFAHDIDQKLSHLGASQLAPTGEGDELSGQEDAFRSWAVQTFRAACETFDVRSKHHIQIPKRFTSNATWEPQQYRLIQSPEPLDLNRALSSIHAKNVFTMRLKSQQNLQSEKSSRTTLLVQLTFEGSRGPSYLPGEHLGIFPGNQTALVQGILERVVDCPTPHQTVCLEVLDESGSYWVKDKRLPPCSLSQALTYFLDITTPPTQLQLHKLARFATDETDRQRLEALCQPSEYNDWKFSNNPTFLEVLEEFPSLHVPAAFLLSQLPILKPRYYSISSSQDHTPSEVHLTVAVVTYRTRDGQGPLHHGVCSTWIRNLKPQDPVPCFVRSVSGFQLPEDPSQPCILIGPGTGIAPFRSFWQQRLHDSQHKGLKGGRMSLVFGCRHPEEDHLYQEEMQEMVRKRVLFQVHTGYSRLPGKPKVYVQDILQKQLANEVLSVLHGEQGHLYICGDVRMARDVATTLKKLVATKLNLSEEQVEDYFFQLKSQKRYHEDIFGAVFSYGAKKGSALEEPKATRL
Description: Inhibition of mouse recombinant iNOS expressed in Escherichia coli using L-arginine as substrate up to 180 seconds by hemoglobin capture assay

The next experiment addresses T2, Nitric oxide synthase 3 (Bos taurus, UniProt P29473).
T2 sequence (P29473 whole entry): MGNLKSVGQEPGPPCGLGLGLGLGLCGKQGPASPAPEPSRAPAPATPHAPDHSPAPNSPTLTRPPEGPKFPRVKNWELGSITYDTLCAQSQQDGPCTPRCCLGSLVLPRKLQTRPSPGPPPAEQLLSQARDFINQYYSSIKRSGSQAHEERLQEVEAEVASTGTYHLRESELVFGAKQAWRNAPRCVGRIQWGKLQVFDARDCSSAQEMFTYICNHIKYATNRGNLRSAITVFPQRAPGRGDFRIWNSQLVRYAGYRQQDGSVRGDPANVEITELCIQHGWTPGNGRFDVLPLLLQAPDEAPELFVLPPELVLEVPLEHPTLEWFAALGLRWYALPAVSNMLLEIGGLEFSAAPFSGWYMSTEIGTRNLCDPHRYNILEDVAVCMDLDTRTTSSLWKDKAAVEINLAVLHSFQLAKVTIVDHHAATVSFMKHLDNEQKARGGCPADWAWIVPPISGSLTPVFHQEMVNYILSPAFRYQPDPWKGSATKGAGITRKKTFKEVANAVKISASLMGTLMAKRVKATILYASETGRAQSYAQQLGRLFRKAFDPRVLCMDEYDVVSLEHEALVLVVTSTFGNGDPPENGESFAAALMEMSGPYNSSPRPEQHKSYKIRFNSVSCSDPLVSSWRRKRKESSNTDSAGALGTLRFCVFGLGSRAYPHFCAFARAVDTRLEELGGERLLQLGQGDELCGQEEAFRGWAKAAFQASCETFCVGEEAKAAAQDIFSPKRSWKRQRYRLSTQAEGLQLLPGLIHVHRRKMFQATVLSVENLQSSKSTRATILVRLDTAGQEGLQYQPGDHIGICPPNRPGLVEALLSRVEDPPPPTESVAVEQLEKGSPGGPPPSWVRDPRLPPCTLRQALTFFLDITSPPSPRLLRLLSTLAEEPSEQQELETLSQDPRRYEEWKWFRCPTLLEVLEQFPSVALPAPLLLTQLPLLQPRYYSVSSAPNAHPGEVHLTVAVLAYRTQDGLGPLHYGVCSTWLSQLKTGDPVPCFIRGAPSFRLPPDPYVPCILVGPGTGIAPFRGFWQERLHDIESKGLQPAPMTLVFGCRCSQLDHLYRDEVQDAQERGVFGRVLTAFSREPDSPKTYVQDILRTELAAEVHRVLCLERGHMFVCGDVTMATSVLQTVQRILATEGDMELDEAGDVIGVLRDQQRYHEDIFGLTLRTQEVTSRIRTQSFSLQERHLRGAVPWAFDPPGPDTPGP

Description for Nitric oxide synthase 3: Inhibition of bovine recombinant eNOS expressed in Escherichia coli using L-arginine as substrate up to 180 seconds by hemoglobin capture assay

As usually defined, the pKi is −log10 of the Ki, conventionally taken in molar units. A higher pKi goes with a low Ki. Take `Cc1cc(N)nc(COCCOCc2cc(C)cc(N)n2)c1`: the negative-log Ki (pKi) was 5.53 in experiment [1] and 5.28 at Nitric oxide synthase 3.
